Measured values from patent US20070276034A1, “Compounds, compositions and methods for the treatment of synucleinopathies” (priority 2002, published 2007).

How the values were obtained:
Format in all cases: biochemical
Wild-type α-synuclein = biological target: T1, Wild-type α-synuclein (Homo sapiens, UniProt P37840); assay: Circular dichroism spectroscopy - conversion of α-synuclein to β-sheet-rich structure; conditions: for inhibition of conversion of α-synuclein to a β-sheet-rich structure (in words): 48 hours, 1 mg/ml compound (FIG. 13D)
T1 construct: purchased rPeptide (Athens, Ga., USA)
Procedure: For this purpose, α-synuclein was obtained from rPeptide (Athens, Ga., USA) as a lyophilized salt in 1 mg aliquots. Buffer components and other solvents were obtained from Sigma as A.C.S. Reagent grade or higher. Wild-type α-synuclein was dissolved in a buffer containing 9.5 mM phosphate and 139.7 mM potassium chloride, adjusted to pH 7.4. […] Aliquots of the solutions were taken at the appropriate time point for CD spectral analysis. CD spectra were acquired on a Jasco J-810 spectropolarimeter using a 0.1 cm path length cell. All spectra were recorded with a step size of 0.1 nm, a bandwidth of 1 nm, and an α-synuclein concentration of 0.1 mg/ml. The spectra were trimmed at the shortest wavelength which still provided a dynode voltage less than […]. The trimmed spectra were then subjected to a data processing routine beginning with noise reduction by Fourier transform followed by subtraction of a blank spectrum (compound or vehicle only without α-synuclein). These blank corrected spectra were then zeroed at 260 nm and the units converted from millidegrees to specific ellipticity. Percent β-sheet was determined from processed spectra by subtracting the ellipticity minimum value at approximately 218 nm from the maximum value observed at approximately 197 nm and referencing to a scale normalized to nearly fully folded and unfolded reference values, consistent with previous reports (Ramirez-Alvarado et al., J. Mol. […] Andersen et al., J. Am. Chem. […] These percent β-sheet values were then used to provide the respective relative % inhibition induced by the compounds.

monomeric Aβ 1-42 = biological target: T2, monomeric Aβ 1-42 (Homo sapiens, UniProt P05067); assay: SDS-PAGE/Western blot of Aβ 1-42 after incubation with compounds; conditions: 25 μM pre-fibrillized Aβ 1-42, 37° C., 3 days, 0.2 μm filtrate, antibody 6E10
T2 construct: purchased Bachem Inc
Procedure: In this latter study, triplicate samples of pre-fibrillized Aβ 1-42 (25 μM) was incubated at 37° C. for 3 days, alone or in the presence of the compounds or EDTA. Five micrograms of each sample was then filtered through a 0.2 μm filter. Protein recovered from the filtrate was then loaded, and ran on a 10-20% Tris-Tricine SDS-PAGE, blotted to nitrocellulose and detected using an Aβ-antibody (clone 6E10; Senetek).

NAC fibrils = biological target: T3, NAC fibrils (Homo sapiens, UniProt P37840); assay: Congo red binding assay with NAC fibrils; conditions: for % Inhibition NAC (result ± S.D.), Congo red binding: 3-day incubation
T3 construct: NAC is a 35-amino acid fragment of α-synuclein; purchased Bachem Inc
Procedure: In the Congo red binding assay, the ability of a given test compound to alter amyloid (in this case, NAC) binding to Congo red is quantified. In this assay, NAC and test compounds were incubated for 3 days and then vacuum filtered through a 0.2 μm filter. The amount of NAC retained in the filter was then quantitated following staining of the filter with Congo red. After appropriate washing of the filter, any lowering of the Congo red color on the filter in the presence of the test compound (compared to the Congo red staining of the amyloid protein in the absence of the test compound) was indicative of the test compound's ability to diminish/alter the amount of aggregated and congophilic NAC.
In one study, the ability of NAC fibrils to bind Congo red in the absence or presence of increasing amounts of compounds #1, 3, 23, 26, 63, 66, 67, or EDTA (at NAC:test compound weight ratios of 1:1, 1:0.1, 1:0.01 or 1:0.001) was determined.

[1] = NAC:test compound wt/wt ratio 1:0.001
[2] = NAC:test compound wt/wt ratio 1:0.01
[3] = NAC:test compound wt/wt ratio 1:0.1
[4] = NAC:test compound wt/wt ratio 1:1

T2 sequence (P05067 672-713): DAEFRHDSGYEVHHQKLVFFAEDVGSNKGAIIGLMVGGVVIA

Row | SMILES | inhibition of conversion of α-synuclein to a β-sheet-rich structure (in words) (Wild-type α-synuclein) | detection of Aβ 1-42 monomers (~4 kilodalton band) on Western blot (monomeric Aβ 1-42) | % Inhibition NAC (result ± S.D.), Congo red binding (NAC fibrils; [3]) [%] | % Inhibition NAC (result ± S.D.), Congo red binding (NAC fibrils; [4]) [%] | other results
1 | O=C(Nc1ccc(O)c(O)c1)c1ccc(O)c(O)c1 [Compound 51, 3,4-dihydroxybenzoic acid 3,4-dihydroxyanilide] | completed inhibited conversion | not detected | – | – | conversion of natively unfolded α-synuclein to a β-sheet-rich structure (in words) (Wild-type α-synuclein; 1 mg/ml α-synuclein, 1 mg/ml compound, 24 hours, 37°): prevents the conversion of natively unfolded α-synuclein to a β-sheet-rich structure; dose sufficient to completely eliminate the conversion of α-synuclein to a β-sheet-rich structure (Wild-type α-synuclein; 1.0 mg/ml α-synuclein, 24 hours incubation at 37° C.): 0.25 mg/mL; IC50 (Wild-type α-synuclein; 1.0 mg/ml α-synuclein, 24 hours incubation at 37° C., read-out: dose sufficient to inhibit the conversion of α-synuclein to a β-sheet-rich structure by approximately 50% (converted)): 574 µM; β-sheet-rich structure of α-synuclein (Wild-type α-synuclein; compound added 24 hours after the beginning (t=24 hr), up to 144 hours at 37° C.): ≤ 45%; β-sheet-rich structure of α-synuclein (Wild-type α-synuclein; compound added at the beginning (t=0 hr), sampled up to 144 hours): approximately 10%
2 | O=C(O)CN(CCN(CC(=O)O)CC(=O)O)CC(=O)O [EDTA, reference compound] | – | detected as a ˜4 kilodalton band | 0.0 ± 38.26 | 0.2 ± 7.33 | % Inhibition NAC (result ± S.D.), Congo red binding (NAC fibrils; [1]): 0.0 ± 20.57%; % Inhibition NAC (result ± S.D.), Congo red binding (NAC fibrils; [2]): 0.0 ± 22.0%; inhibition of NAC fibril binding to Congo red (in words) (NAC fibrils; all concentrations tested (ratios 1:1 to 1:0.001), 3 days): no significant inhibition
3 | Oc1ccc(Cc2ccc(O)c(O)c2)cc1O [Compound 3, 3,4,3′,4′-tetrahydroxydiphenylmethane] | – | – | 83.2±3.57 | 94.4±2.48 | % Inhibition NAC (result ± S.D.), Congo red binding (NAC fibrils; [1]): 65.2 ± 5.40%; % Inhibition NAC (result ± S.D.), Congo red binding (NAC fibrils; [2]): 81.7 ± 2.82%
4 | O=C(N[C@@H]1CCCC[C@H]1NC(=O)c1ccc(O)c(O)c1)c1ccc(O)c(O)c1 (relative stereo) [Compound 26, N,N′-bis(3,4-dihydroxybenzoyl)-trans-1,2-diaminocyclohexane] | – | – | 36.7 ± 5.59 | 34.4 ± 10.19 | –
5 | O=C(CCC(=O)NCc1ccc(O)c(O)c1)NCc1ccc(O)c(O)c1 [Compound 67, succinic acid bis(3,4-dihydroxybenzylamide)] | – | – | – | 81.2 ± 2.87 | –
6 | O=C(Nc1ccc(O)c(O)c1)C(=O)Nc1ccc(O)c(O)c1 [Compound 63, oxalic acid bis(3,4-dihydroxyanilide)] | modest inhibitory effects | – | – | – | –
7 | O=C(NCc1ccc(O)c(O)c1)C(=Cc1ccc(O)c(O)c1)NC(=O)c1ccc(O)c(O)c1 [Compound 21, α-(3,4-dihydroxybenzamido)-3,4-dihydroxycinnamic acid 3,4-dihydroxybenzyl amide] | – | not detected | – | – | –
8 | O=C(Nc1ccc(O)c(O)c1)Nc1ccc(O)c(O)c1 [Compound 76, 1,3-bis(3,4-dihydroxyphenyl)urea] | completed inhibited conversion | not detected | – | – | –
9 | O=C(c1ccc(O)c(O)c1)C(O)c1ccc(O)c(O)c1 (stereo not drawn) [Compound 1, 3,4,3′,4′-tetrahydroxybenzoin] | – | – | 75.9 ± 2.58 | 75.4 ± 2.96 | –
10 | O=C(c1ccc(O)c(O)c1)N1CCN(C(=O)c2ccc(O)c(O)c2)CC1 [Compound 23, 1,4-bis(3,4-dihydroxybenzoyl)piperazine] | modest inhibitory effects | – | – | – | –
